The subject of the assay is heme oxygenase-1 (HO-1). The assay can be described thus: High throughput screen: HO-1 promoter/enhancer luciferase reporter (pHOGL3/4.5+220) in stable HEK293 cells. Format: cell-based. The note with it: Homo sapiens; for EC50: Table 1, evaluation of biaryl aminomaleimides, HO-1 induction; for Emax: Table 1, unit inferred, Emax as % of 5 μM hemin. Here is the method:
The generation of the pHOGL3/4.5+220 construct is described in Deshane, et al. (2010) “SpI regulates chromatin looping between an intronic enhancer and distal promoter of the human heme oxygenase-1 gene in renal cells” J Biol Chem 285(22): 16476-86. See also FIG. 1.
Briefly, BamHI sites were added to the 4.5-kb PCR product generated by long-range PCR from a bacterial artificial chromosome clone containing portions of chromosome 22 (accession no. Z82244), including the HO-1 gene. This fragment was cloned into the BglII restriction site of the multiple cloning region to make the parental clone (pHOGL3/4.5). The 220-bp intronic enhancer was amplified with SalI sites on either end and cloned into the SalI site of the vector to generate pHOGL3/4.5+220.
In order to generate cells that stably express luciferase expression vectors that lack a mammalian antibiotic selection cassette, HEK293 cells were co-transfected with either pHOGL3/4.5+220 (Deshane et al, 2010) or the Triple Mutant construct (Liby, Hock et al, 2005; Hock et al, 2007) and pcDNA3.1 Zeocin using Lipofectamine 2000. Cells were cultured in Zeocin (400 ug/ml; Invitrogen) for selection. Individual clones were sorted by flow cytometry and plated into a 96-well plate at a density of one cell per well. Clones were maintained and expanded in complete media (DMEM/10% FBS/1× antibiotic-antimycotic) supplemented with 100 ug/ml Zeocin, and incubated at 37° C. in 5% carbon dioxide. Incorporation of the Luciferase expression vectors was validated by assaying for luciferase.
A library of over 150,000 compounds, as well as a library of over 4,000 FDA approved compounds, were used in the HTS assay. […] This led to the identification of approximately 800 compounds that induce HO-1 and have desirable chemical structures. […] The In-Cell Western assay was optimized to screen for endogenous HO-1 in a high throughput platform, and results were validated by Western blot, real-time PCR, and enzyme activity assays. Additional RNA sequencing studies highlighted a role for the transcription factor Nrf2 and other targets in HO-1 induction by several small molecules.
A general note: Reporter assays use an easily measured gene product as a stand-in for the process of interest.

Molecules are shown by their SMILES.

Usually EC50 stands for the concentration needed to bring the measured effect to its halfway point. The Emax is the greatest response seen or fitted, relative to the assay's reference.

As to `O=C1C=C(Nc2cc(F)c(O)c(F)c2)C(=O)N1c1ccccc1` [Compound 1, 3-(3,5-difluoro-4-hydroxy-anilino)-1-phenyl-pyrrole-2,5-dione], the EC50 was found to be 3.08 µM and the Emax came out at 90.6%.
For `O=C1C=C(Nc2ccc(O)cc2)C(=O)N1c1ccccc1` [Compound 2], the EC50 turned out to be 1.81 µM and the Emax stood at 38.1%.
For `O=C1C=C(Nc2ccc(O)c(F)c2)C(=O)N1c1ccccc1` [Compound 3], the EC50 came to 1.86 µM and the Emax was found to be 56.4%.
For `O=C1C=C(Nc2ccc(O)cc2F)C(=O)N1c1ccccc1` [Compound 4] the same measures were 1.78 µM and 38.9%.
The corresponding values for `O=C1C=C(Nc2cc(Cl)c(O)c(Cl)c2)C(=O)N1c1ccccc1` [Compound 5] are 31.3 µM and 72.8%.
The corresponding values for `O=C1C=C(Nc2ccc(O)cc2Cl)C(=O)N1c1ccccc1` [Compound 6] are 1.74 µM and 20.4%.
With `O=C1C=C(Nc2ccc(O)c(Cl)c2)C(=O)N1c1ccccc1` [Compound 7], the EC50 was above 50 µM.
On to `O=C1C=C(Nc2ccc(O)c(F)c2F)C(=O)N1c1ccccc1` [Compound 8], for which the EC50 was 5.49 µM and the Emax stood at 41.7%.
As for `O=C1C=C(Nc2ccc(O)c(Cl)c2F)C(=O)N1c1ccccc1` [Compound 9], the EC50 turned out to be 1.69 µM and the maximal response (Emax) came to 33.7%.
Turning to `O=C1C=C(Nc2c(F)cc(O)cc2F)C(=O)N1c1ccccc1` [Compound 10], the EC50 is above 50 µM.
Same read-out and setting: in the case of `O=C1C=C(Nc2ccc(O)c(C(F)(F)F)c2)C(=O)N1c1ccccc1` [Compound 11] it was above 50 µM.
For `Cc1cc(NC2=CC(=O)N(c3ccccc3)C2=O)cc(C)c1O` [Compound 12], the EC50 is 7.55 µM and the Emax stood at 39.3%.
As to `O=C1C=C(Nc2ccc(O)c3ncccc23)C(=O)N1c1ccccc1` [Compound 13], the EC50 is above 50 µM.
In the case of `O=C1C=C(Nc2cc(F)c(O)cc2F)C(=O)N1c1ccccc1` [Compound 14], the EC50 stood at 2.97 µM and the Emax came out at 49.1%.
As to `O=C1C=C(Nc2cc(F)cc(F)c2O)C(=O)N1c1ccccc1` [Compound 15], the EC50 is above 50 µM.
Same read-out and setting: as for `O=C1C=C(Nc2cc(Cl)c(Cl)cc2O)C(=O)N1c1ccccc1` [Compound 16], the figure is above 50 µM.
`O=C1C=C(Nc2ccc(F)c(F)c2O)C(=O)N1c1ccccc1` [Compound 17]: the EC50 worked out at 12 µM and the Emax was 54.4%.
With `O=C1C=C(Nc2cc(O)c(F)cc2F)C(=O)N1c1ccccc1` [Compound 18], the EC50 was above 50 µM.
Still for that read-out and setting: in the case of `O=C1C=C(Nc2cc(O)c(Cl)cc2F)C(=O)N1c1ccccc1` [Compound 19] it was above 50 µM.
As to `O=C1C=C(Nc2cc(O)c(Cl)cc2Cl)C(=O)N1c1ccccc1` [Compound 20], the EC50 is above 50 µM.
As to `O=C1C=C(Nc2cc(F)c(F)c(F)c2)C(=O)N1c1ccccc1` [Compound 21], the EC50 was above 50 µM.
Still for that read-out and setting: as for `O=C1C=C(N2CCN(c3ccc(O)cc3)CC2)C(=O)N1c1ccccc1` [Compound 22], the figure is above 50 µM.
Still for that read-out and setting: in the case of `COc1c(F)cc(NC2=CC(=O)N(c3ccccc3)C2=O)cc1F` [Compound 23] it was above 50 µM; in that of `O=C(O)c1ccc(NC2=CC(=O)N(c3ccccc3)C2=O)cc1` [Compound 24], above 50 µM.
Still for that read-out and setting: in the case of `Nc1ccc(NC2=CC(=O)N(c3ccccc3)C2=O)cc1` [Compound 25] it was above 50 µM.
As to `O=C1C=C(Nc2cc(F)c(O)c(F)c2)C(=O)N1c1ccc(F)cc1` [Compound 26], the EC50 came out at 4.21 µM and the maximal effect (Emax) worked out at 80.7%.
The corresponding values for `O=C1C=C(Nc2cc(F)c(O)c(F)c2)C(=O)N1c1cc(F)cc(F)c1` [Compound 27] are above 50 µM and 72.6%.
For `O=C1C=C(Nc2cc(F)c(O)c(F)c2)C(=O)N1c1cc(F)c(F)c(F)c1` [Compound 28] the same measures were 16.9 µM and 31.3%.
For `O=C1C=C(Nc2cc(F)c(O)c(F)c2)C(=O)N1c1ccc(Cl)cc1` [Compound 29] the same measures were 3.34 µM and 110%.
On to `COc1ccc(N2C(=O)C=C(Nc3cc(F)c(O)c(F)c3)C2=O)cc1` [Compound 30], for which the concentration for a half-maximal effect (EC50) came to 2.91 µM and the Emax is 111%.
For `O=C1C=C(Nc2cc(F)c(O)c(F)c2)C(=O)N1c1ccc(OC(F)(F)F)cc1` [Compound 31] the same measures were 2.31 µM and 64%.
Regarding `O=C1C=C(Nc2cc(F)c(O)c(F)c2)C(=O)N1c1ccc2c(c1)OCO2` [Compound 32], the EC50 stood at 12.9 µM and the Emax was 38.1%.
On to `COc1cc(N2C(=O)C=C(Nc3cc(F)c(O)c(F)c3)C2=O)cc(OC)c1OC` [Compound 33], for which the EC50 stood at 2.08 µM and the Emax turned out to be 28.4%.
The corresponding values for `COc1c(Cl)cccc1N1C(=O)C=C(Nc2cc(F)c(O)c(F)c2)C1=O` [Compound 34] are above 50 µM and 28.3%.
Turning to `Cc1ccc(N2C(=O)C=C(Nc3cc(F)c(O)c(F)c3)C2=O)cc1` [Compound 35], the EC50 stood at 2.1 µM and the Emax is 96.8%.
As to `CC(C)c1ccc(N2C(=O)C=C(Nc3cc(F)c(O)c(F)c3)C2=O)cc1` [Compound 36], the EC50 was determined as 0.89 µM and the Emax is 52.5%.
For `Cc1ccc(N2C(=O)C=C(Nc3cc(F)c(O)c(F)c3)C2=O)cc1C` [Compound 37] the same measures were 1.56 µM and 57.2%.
With `Cc1ccc(N2C(=O)C=C(Nc3cc(F)c(O)c(F)c3)C2=O)c(C)c1` [Compound 38], the EC50 was found to be 2.29 µM and the Emax is 57%.
As for `O=C1C=C(Nc2cc(F)c(O)c(F)c2)C(=O)N1c1ccc(C(F)(F)F)cc1` [Compound 39], the EC50 was 4.32 µM and the Emax was determined as 94.9%.
On to `N#Cc1ccc(N2C(=O)C=C(Nc3cc(F)c(O)c(F)c3)C2=O)cc1` [Compound 40], for which the EC50 is above 50 µM.
As for `O=C1C=C(Nc2cc(F)c(O)c(F)c2)C(=O)N1c1ccc(N2CCCCC2)cc1` [Compound 41], the EC50 amounted to 11.5 µM and the Emax was found to be 70.4%.
For the molecule `O=C1C=C(Nc2cc(F)c(O)c(F)c2)C(=O)N1c1ccc(-c2ncco2)cc1` [Compound 42], the EC50 is above 50 µM.
Take `O=C1C=C(Nc2cc(F)c(O)c(F)c2)C(=O)N1Cc1ccccc1` [Compound 43]: the EC50 was 1.03 µM and the Emax is 67.5%.
For `COC(=O)c1ccc(N2C(=O)C=C(Nc3cc(F)c(O)c(F)c3)C2=O)cc1` [Compound 44], the EC50 came out at 19.1 µM and the Emax was 99.6%.
In the case of `O=C1C=C(Nc2cc(F)c(O)c(F)c2)C(=O)N1c1cccc2ccccc12` [Compound 45], the EC50 turned out to be 36.1 µM and the Emax came out at 141%.
The corresponding values for `O=C1C=C(Nc2cc(F)c(O)c(F)c2)C(=O)N1CCc1ccccc1` [Compound 46] are 0.43 µM and 68.5%.
The corresponding values for `O=C1C=C(Nc2cc(F)c(O)c(F)c2)C(=O)N1c1ccccc1C(F)(F)F` [Compound 47] are 19.7 µM and 91.1%.
The corresponding values for `O=C1C=C(Nc2cc(F)c(O)c(F)c2)C(=O)N1c1ccccc1F` [Compound 48] are 13.7 µM and 82.9%.
For the molecule `COc1c(F)cc(N2C(=O)C=C(Nc3cc(F)c(O)c(F)c3)C2=O)cc1F` [Compound 49], the EC50 amounted to 8.37 µM and the Emax is 69.6%.
For `O=C1C=C(Nc2cc(F)c(O)c(F)c2)C(=O)N1c1ccc(O)cc1` [Compound 50], the EC50 turned out to be 15.3 µM and the Emax was determined as 75.2%.
The corresponding values for `NC(=O)c1cccc(N2C(=O)C=C(Nc3cc(F)c(O)c(F)c3)C2=O)c1` [Compound 51] are 15.4 µM and 62.4%.
For the molecule `COc1cc(N2C(=O)C=C(Nc3cc(F)c(O)c(F)c3)C2=O)ccc1F` [Compound 52], the EC50 was 14 µM and the Emax worked out at 53.1%.
For `CN(C)c1ccc(N2C(=O)C=C(Nc3cc(F)c(O)c(F)c3)C2=O)cc1` [Compound 53] the same measures were 3.35 µM and 94.1%.
For `COc1ccccc1N1C(=O)C=C(Nc2cc(F)c(O)c(F)c2)C1=O` [Compound 54] the same measures were 20 µM and 54.9%.
Turning to `O=C1C=C(Nc2cc(F)c(O)c(F)c2)C(=O)N1c1ccc(OC(F)F)cc1` [Compound 55], the EC50 came out at 2.27 µM and the Emax is 93.3%.
For `COc1ccc(N2C(=O)C=C(Nc3cc(F)c(O)c(F)c3)C2=O)cc1C#N` [Compound 56] the same measures were 8.39 µM and 36.1%.

Values taken from patent US11753374B2, “Compounds for the treatment of acute and chronic kidney disease” (Southern Research Institute, priority 2020, dated 2023).
